According to article PMC3254090 (ACS chemical neuroscience, 2011):
Where two headings read alike, the source gives them in different places.

How the values were obtained:
[1] = test system: histamine subtype 3 (H3) receptor; conditions: cited from earlier work
[2] = test system: H520 cells; assay: BrdU proliferation assay, H520; assay type: cell-based; conditions: 10 μM, 48 hours
[3] = test system: SW620 cells; assay: BrdU proliferation assay, SW620; assay type: cell-based; conditions: 10 μM, 48 hours
[4] = test system: HCT116 cells; assay: HCT116 colon carcinoma cell viability assay; assay type: cell-based; conditions: for effect on HCT116 cell viability: after 48 hours
[5] = test system: SW620 cells; assay: cell viability, SW620; assay type: cell-based
[6] = test system: H520 cells; assay: cell viability, H520; assay type: cell-based
[7] = biological target: T1, Dopamine Transporter, DAT (Homo sapiens, UniProt Q01959); assay: functional assay, DAT; assay type: biochemical
T1 sequence (Q01959 whole entry): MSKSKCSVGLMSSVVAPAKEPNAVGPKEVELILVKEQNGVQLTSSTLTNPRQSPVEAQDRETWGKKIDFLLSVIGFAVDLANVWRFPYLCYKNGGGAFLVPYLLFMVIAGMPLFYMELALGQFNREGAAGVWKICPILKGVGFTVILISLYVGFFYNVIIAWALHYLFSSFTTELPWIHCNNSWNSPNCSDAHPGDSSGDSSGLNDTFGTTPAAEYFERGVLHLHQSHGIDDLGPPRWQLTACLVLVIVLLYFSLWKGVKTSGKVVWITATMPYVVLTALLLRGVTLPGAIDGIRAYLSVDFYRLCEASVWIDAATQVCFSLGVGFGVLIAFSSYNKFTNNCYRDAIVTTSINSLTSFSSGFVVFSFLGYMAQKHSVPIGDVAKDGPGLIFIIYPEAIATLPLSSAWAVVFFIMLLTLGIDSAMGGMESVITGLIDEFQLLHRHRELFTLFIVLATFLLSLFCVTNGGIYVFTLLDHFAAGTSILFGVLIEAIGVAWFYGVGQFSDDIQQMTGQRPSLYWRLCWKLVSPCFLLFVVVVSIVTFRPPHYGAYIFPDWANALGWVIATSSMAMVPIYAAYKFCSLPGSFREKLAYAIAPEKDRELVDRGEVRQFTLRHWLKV

[8] = biological target: T2, histamine H3 (Homo sapiens, UniProt Q9Y5N1); assay: functional assay, H3; assay type: biochemical
T2 sequence (Q9Y5N1 whole entry): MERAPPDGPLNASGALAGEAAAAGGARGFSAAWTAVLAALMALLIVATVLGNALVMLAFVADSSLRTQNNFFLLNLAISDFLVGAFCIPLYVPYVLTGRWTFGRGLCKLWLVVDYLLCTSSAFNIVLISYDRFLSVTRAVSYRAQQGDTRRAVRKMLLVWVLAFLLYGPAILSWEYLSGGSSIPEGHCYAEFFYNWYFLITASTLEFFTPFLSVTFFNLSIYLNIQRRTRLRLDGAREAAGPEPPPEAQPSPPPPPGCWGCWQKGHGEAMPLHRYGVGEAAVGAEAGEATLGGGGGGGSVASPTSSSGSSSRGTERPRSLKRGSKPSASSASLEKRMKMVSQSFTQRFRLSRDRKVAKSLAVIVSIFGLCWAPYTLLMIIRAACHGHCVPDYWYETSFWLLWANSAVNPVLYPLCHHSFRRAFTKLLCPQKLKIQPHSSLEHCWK

[9] = test system: 68 GPCRs, ion channels and transporters; assay: external panel of radioligand binding assays
[10] = biological target: T3, norepinephrine transporter, NET (Homo sapiens, UniProt P23975); assay: functional assay, NET; assay type: biochemical
T3 sequence (P23975 whole entry): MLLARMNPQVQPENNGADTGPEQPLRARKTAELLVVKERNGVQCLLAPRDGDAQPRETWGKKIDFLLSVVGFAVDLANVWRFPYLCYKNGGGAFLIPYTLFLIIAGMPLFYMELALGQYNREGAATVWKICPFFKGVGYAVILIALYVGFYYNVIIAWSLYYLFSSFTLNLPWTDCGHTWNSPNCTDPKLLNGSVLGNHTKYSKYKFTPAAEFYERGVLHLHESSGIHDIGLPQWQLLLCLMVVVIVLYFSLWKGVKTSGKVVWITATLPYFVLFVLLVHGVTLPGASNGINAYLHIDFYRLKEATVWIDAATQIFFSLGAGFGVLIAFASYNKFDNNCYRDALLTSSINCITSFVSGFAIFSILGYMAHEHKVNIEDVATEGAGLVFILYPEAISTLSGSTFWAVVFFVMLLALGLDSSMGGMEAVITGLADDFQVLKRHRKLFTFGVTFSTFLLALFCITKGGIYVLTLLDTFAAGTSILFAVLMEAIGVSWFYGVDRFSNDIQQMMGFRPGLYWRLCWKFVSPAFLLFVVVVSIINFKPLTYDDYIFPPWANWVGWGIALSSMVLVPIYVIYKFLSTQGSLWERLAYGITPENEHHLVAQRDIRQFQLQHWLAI

[11] = biological target: T1, Dopamine Transporter, DAT; assay: radioligand binding assay, DAT
[12] = biological target: T3, norepinephrine transporter, NET; assay: radioligand binding assay, NET
[13] = cited from earlier work
[14] = standard cytotoxicity assay
[15] = biological target: SERT (Homo sapiens, UniProt P31645); assay: SERT activity in receptor profiling; assay type: binding
SERT, sequence (P31645 whole entry, species assumed): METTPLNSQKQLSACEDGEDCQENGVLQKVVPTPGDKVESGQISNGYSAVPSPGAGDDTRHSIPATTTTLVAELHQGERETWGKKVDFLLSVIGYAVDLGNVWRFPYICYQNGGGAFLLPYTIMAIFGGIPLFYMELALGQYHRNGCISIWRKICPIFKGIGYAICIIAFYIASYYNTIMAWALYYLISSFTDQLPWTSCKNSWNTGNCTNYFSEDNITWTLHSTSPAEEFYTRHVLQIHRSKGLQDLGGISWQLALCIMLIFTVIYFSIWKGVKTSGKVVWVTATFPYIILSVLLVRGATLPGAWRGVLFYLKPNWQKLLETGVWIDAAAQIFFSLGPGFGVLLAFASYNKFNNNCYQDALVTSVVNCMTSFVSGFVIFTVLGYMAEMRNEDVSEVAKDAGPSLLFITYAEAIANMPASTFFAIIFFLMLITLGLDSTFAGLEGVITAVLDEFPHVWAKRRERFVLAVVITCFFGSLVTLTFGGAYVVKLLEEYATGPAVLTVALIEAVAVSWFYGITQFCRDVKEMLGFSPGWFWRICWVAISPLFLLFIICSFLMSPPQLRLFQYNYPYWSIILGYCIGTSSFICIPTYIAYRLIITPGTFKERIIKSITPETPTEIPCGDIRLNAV

[16] = biological target: T2, histamine H3; assay: radioligand binding assay, H3
[17] = cited from earlier work; remark: listed apart in the source

COc1ccc(C/C(=N\O)C(=O)NCCc2c[nH]cn2)cc1Br [compound 2, verogamine]
affinity for and inhibition of H3 receptor [1]: displayed both affinity for, and inhibition of

NCCC[C@H]1NCCc2c1[nH]c1cc(Br)ccc21 [compound 21, (R)-3-(7-bromo-2,3,4,9-tetrahydro-1H-pyrido[3,4-b]indol-1-yl)propan-1-amine]
inhibition of proliferation (BrdU) [2]: dramatic affects inhibiting proliferation | inhibition of proliferation (BrdU) [3]: dramatic affects inhibiting proliferation | IC50 ([4]; Homo sapiens, HCT-116, 48 h): 3 µM | effect on HCT116 cell viability [4]: completely killing the cells | cytotoxicity in multiple cell lines ([4]; multiple non-transformed and colon cancer cell lines): extremely cytotoxic | activity on cell viability [5]: significant activity on cell viability | activity on cell viability [6]: significant activity on cell viability

CN(C)CCCOc1c(Br)cc(CCN(C)C)cc1Br [compound 1, aplysamine]
affinity for and inhibition of H3 receptor [1]: displayed both affinity for, and inhibition of

CN(C)CCCOc1ccc(CCNC(=O)c2cc(Br)c[nH]2)cc1Br [compound 4, dispyrin]
affinity for and inhibition of H3 receptor [1]: displayed both affinity for, and inhibition of

C[C@H]1[C@H]2CC[C@H]3[C@@H]4CC=C5C[C@@H](N(C)C)CC[C@]5(C)[C@H]4CC[C@]23CN1C [compound 3, conessine]
affinity for and inhibition of H3 receptor [1]: displayed both affinity for, and inhibition of

N=C(N)NCCC[C@H]1NCCc2c1[nH]c1cc(Br)ccc21 [compound 7, (+)-7-Bromotrypargine]
IC50 [7]: 3.8 µM | IC50 [8]: 3.6 µM | pharmacological profile in panel of 68 targets [9]: significant percent inhibition at only three targets | IC50 [10]: 1.9 µM | % Inhibition (@10 μM) ([11]; 10 μM, radioligand binding): 81% | Ki ([11]; binding): 3 µM | % Inhibition (@10 μM) ([12]; 10 μM, radioligand binding): 82% | Ki ([12]; binding): 1.9 µM | antimalarial activity [13]: found to possess antimalarial activity | cytotoxicity: non-toxic up to [14]: > 20 µM | SERT activity [15]: devoid of SERT activity | SERT activity ([15]; listed as (+)-7-bromotrypargine): without inhibiting SERT | effect on HCT116 cell viability [4]: no affect on HCT116 cell viability | % Inhibition (@10 μM) ([16]; 10 μM, radioligand binding): 74% | Ki ([16]; binding): 1.8 µM

N=C(N)NCCCC1NCCc2c1[nH]c1ccccc21 (stereo not drawn) [compound 5, trypargine]
toxicity [17]: highly toxic
